Columns and labels:
BRD4 = target: T1, BRD4 (Homo sapiens, UniProt O60885); experiment: In vitro enzymatic activity assay: inhibition of BRD4 enzyme binding reaction by HTRF; conditions: GST-BRD4 (51-462) 1 nM, acetylated short peptide 100 nM, 23° C., 60 min
T1 construct: GST-BRD4 (51-462) (purchased from Cisbio); purchased Cisbio
Description: IC50 values of the compounds of the present application in inhibiting BRD4 enzyme binding reaction were determined by homogeneous time resolved fluorescence (HTRF). A compound was serially diluted 5-fold with 100% DMSO starting from 1 mM (totally 7 concentrations). 2 μL of the compound at each concentration was added into 48 μL of a reaction buffer solution (20 mM HEPES pH7.5, 150 mM NaCl, 5 mM DTT, 0.005% Tween 20 and 100 μg/ml BSA) to be diluted and fully mixed. Then 2.5 μL of the resulting mixture was added to a 384-well plate (OptiPlate-384, purchased from PerkinElmer), 5 μL of GST-BRD4 (51-462) (purchased from Cisbio) (final concentration: 1 nM) was added, and the resulting mixture was centrifuged, and fully mixed. Then 2.5 μL of a short peptide Biotin-AHA-SGRGK(Ac)GGK-(Ac)GLGK(Ac)GGAK(Ac)RHRKV) (synthesized by GL Biochem (Shanghai) Ltd) (final concentration: 100 nM) was added to initiate the reaction (total reaction volume: 10 μL). The 384-well plate was placed in an incubator at 23° C. to react for 60 min, and then 5 μL of Eu3+ cryptate-labeled anti-GST antibody (purchased from Cisbio) and 5 μL of Streptavidin-XL-665 (purchased from Cisbio) were added to terminate the reaction. After an additional 1 hour incubation in the incubator, the fluorescence values (excited at 320 nm, emitted light at 665 nm and 620 nm being detected, and the ratio of the two being the enzyme binding signal) were read on Envision (purchased from PerkinElmer). The binding strength of each compound to the BRD4 protein was determined respectively at 7 concentrations, and the data were calculated with GraphPad Prism software to obtain the IC50 value of the compound.

MV4-11 cells = experiment: Cell proliferation activity assay (Cell-Titer Blue); type: cell-based; conditions: Homo sapiens, inhibiting cell proliferation, 72 h co-incubation
Description: Human acute […] leukemia cell line MV4-11 cells were cultured in PRIM1640 medium plus 10% fetal bovine serum (FBS, purchased from Biological Industries, BI) and 1% penicillin/streptomycin double antibody solution (P/S, purchased from Life Technology) at 37° C. with 5% CO2. On the day before the compound was tested, the MV4-11 cells were spread in a 96-well plate (purchased from Corning) at a concentration of 8,000 cells/195 μL/well. On the next day, the compound was serially diluted 3-fold with 100% DMSO starting from 10 mM (totally 10 concentrations). 2 μL of the resulting mixture at each concentration was diluted with 48 μL of PRIM1640 medium (purchased from Life Technology). 5 μL of the diluted compound at each concentration was added to the spread cell suspension, and the compound and cells were co-incubated in a cell incubator for 72 h (3 days), and then incubated for additional 4 h after adding 35 μL of Cell-Titer Blue reagent (purchased from Promega). Then the fluorescence values (excited at 560 nm, detected at 590 nm) were read on Flexstation III (purchased from Molecular Devices), and the data were calculated with GraphPad Prism software to obtain the IC50 value of the compound in inhibiting cell proliferation.

| Structure (SMILES) | IC50 (BRD4) [nM] | IC50 (MV4-11 cells) [nM] |
| --- | --- | --- |
| COc1ccc2c(n1)c1ncc(-c3c(C)noc3C)cc1n2C(c1ccccc1)C1CCOCC1 (stereo not drawn) [Compound 1, 4-{8-Methoxy-5-[phenyl(tetrahydro-2H-pyran-4-yl)methyl]-5H-pyrrolo[3,2-b:4,5-b′]dipyridin-3-yl}-3,5-dimethylisoxazole] | < 2 |  |
| Cc1noc(C)c1-c1cnc2c3cnc(C(C)(C)O)cc3n([C@H](c3ccccc3)C3CCOCC3)c2c1 [Compound 10, (S)-2-{3-(3,5-dimethylisoxazol-4-yl)-5-[phenyl(tetrahydro-2H-pyran-4-yl)methyl]-5H-pyrrolo[3,2-b:4,5-c′]dipyridin-7-yl}propan-2-ol] | < 2 | < 10 |
| CCOC(=O)c1cc2c(cn1)c1ncc(-c3c(C)noc3C)cc1n2[C@H](c1ccccc1)C1CCOCC1 [Compound 9, Ethyl (S)-3-(3,5-dimethylisoxazol-4-yl)-5-[phenyl(tetrahydro-2H-pyran-4-yl)methyl]-5H-pyrrolo[3,2-b:4,5-c′]dipyridine-7-carboxylate] | < 2 |  |
| Cc1nnn(C)c1-c1cnc2c3ccc(C(C)(C)O)nc3n(C(c3ccccc3)C3CCOCC3)c2c1 (stereo not drawn) [Compound 20, 2-(3-(1,4-Dimethyl-1H-1,2,3-triazol-5-yl)-5-[phenyl(tetrahydro-2H-pyran-4-yl)methyl]-5H-pyrrolo[2,3-b:4,5-b′]dipyridin-7-yl)propan-2-ol] | < 2 |  |
| Cc1noc(C)c1-c1cnc2c3ccc(N)nc3n(C(c3ccccc3)C3CCOCC3)c2c1 (stereo not drawn) [Compound 52, 3-(3,5-Dimethylisoxazol-4-yl)-5-[phenyl(tetrahydro-2H-pyran-4-yl)methyl]-5H-pyrrolo[2,3-b:4,5-b′]dipyridine-7-amine] | < 2 | < 10 |
| Cc1noc(C)c1-c1cnc2c3ccc(C(C)(C)O)nc3n([C@H](c3ccccc3)C3CCOCC3)c2c1 [Compound 16, (S)-2-{3-(3,5-dimethylisoxazol-4-yl)-5-[phenyl(tetrahydro-2H-pyran-4-yl)methyl]-5H-pyrrolo[2,3-b:4,5-b′]dipyridin-7-yl}propan-2-ol] | < 2 | < 10 |
| Cc1noc(C)c1-c1cnc2c3ccc(C(N)=O)nc3n(C(c3ccccc3)C3CCOCC3)c2c1 (stereo not drawn) [Compound 50, 3-(3,5-Dimethylisoxazol-4-yl)-5-[phenyl(tetrahydro-2H-pyran-4-yl)methyl]-5H-pyrrolo [2,3-b:4,5-b′]dipyridine-7-carboxamide] | < 2 | < 10 |
| CCCC(CCC)n1c2cc(C(C)(C)O)ncc2c2ncc(-c3c(C)noc3C)cc21 [Compound 39, 2-[3-(3,5-Dimethylisoxazol-4-yl)-5-(heptan-4-yl)-5H-pyrrolo[3,2-b:4,5-c′]dipyridin-7-yl]propan-2-ol] | < 2 |  |
| CCOC(=O)c1cc2c(cn1)c1ncc(-c3c(C)noc3C)cc1n2C(c1ccccc1)C1CCOCC1 (stereo not drawn) [Compound 3, Ethyl 3-(3,5-dimethylisoxazol-4-yl)-5-[phenyl(tetrahydro-2H-pyran-4-yl)methyl]-5H-pyrrolo[2,3-b:4,5-c′]dipyridine-7-carboxylate] | < 2 |  |
| CC(=O)c1ccc2c3ncc(-c4c(C)noc4C)cc3n(C(c3ccccc3)C3CCOCC3)c2n1 (stereo not drawn) [Compound 56, 1-{3-(3,5-Dimethylisoxazol-4-yl)-5-[phenyl(tetrahydro-2H-pyran-4-yl)methyl]-5H-pyrrolo[2,3-b:4,5-b′]dipyridin-7-yl}ethyl-1-one] | < 2 |  |
| Cc1noc(C)c1-c1cnc2c3ccncc3n(C(c3ccccc3)C3CCOCC3)c2c1 (stereo not drawn) [Compound 37, 3,5-Dimethyl-4-{5-[phenyl(tetrahydro-2H-pyran-4-yl)methyl]-5H-pyrrolo[3,2-b:5,4-c′]dipyridin-3-yl}isoxazole] | < 2 |  |
| Cc1noc(C)c1-c1cnc2c3ccc(O)nc3n(C(c3ccccc3)C3CCOCC3)c2c1 (stereo not drawn) [Compound 43, 3-(3,5-Dimethylisoxazol-4-yl)-5-[phenyl(tetrahydro-2H-pyran-4-yl)methyl]-5H-pyrrolo[2,3-b:4,5-b′]dipyridine-7-ol] | < 2 | < 10 |
| CON(C)C(=O)c1ccc2c3ncc(-c4c(C)noc4C)cc3n(C(c3ccccc3)C3CCOCC3)c2n1 (stereo not drawn) [Compound 55, 3-(3,5-Dimethylisoxazol-4-yl)-N-methoxy-N-methyl-5-[phenyl(tetrahydro-2H-pyran-4-yl)methyl]-5H-pyrrolo[2,3-b:4,5-b′]dipyridine-7-carboxamide] | < 2 |  |
| Cc1noc(C)c1-c1cnc2c3cnc(C(C)(C)O)cc3n(C(c3ccccc3)C3CCOCC3)c2c1 (stereo not drawn) [Compound 4, 2-{3-(3,5-Dimethylisoxazol-4-yl)-5-[phenyl(tetrahydro-2H-pyran-4-yl)methyl]-5H-pyrrolo[3,2-b:4,5-c′]dipyridin-7-yl}propan-2-ol] | < 2 | < 10 |
| Cc1noc(C)c1-c1cnc2c3ccc(C(C)(C)O)nc3n(C(c3ccccc3)C3CCOCC3)c2c1 (stereo not drawn) [Compound 6, 2-{3-(3,5-Dimethylisoxazol-4-yl)-5-[phenyl(tetrahydro-2H-pyran-4-yl)methyl]-5H-pyrrolo[2,3-b:4,5-b′]dipyridin-7-yl}propan-2-ol] | < 2 |  |
| Cc1noc(C)c1-c1cnc2c3cnc(C(C)(C)O)cc3n([C@@H](c3ccccc3)C3CCOCC3)c2c1 [Compound 12, (R)-2-{3-(3,5-dimethylisoxazol-4-yl)-5-[phenyl(tetrahydro-2H-pyran-4-yl)methyl]-5H-pyrrolo[3,2-b:4,5-c′]dipyridin-7-yl}propan-2-ol] | < 2 | < 10 |
| Cc1noc(C)c1-c1cnc2c3ncc(C(C)(C)O)cc3n(C(c3ccccc3)C3CCOCC3)c2c1 (stereo not drawn) [Compound 22, 2-(7-(3,5-Dimethylisoxazol-4-yl)-5-(phenyl(tetrahydro-2H-pyran-4-yl)methyl]-5H-pyrrolo[3,2-b:4,5-b′]dipyridin-3-yl)propan-2-ol] | < 2 | < 10 |
| Cc1noc(C)c1-c1cnc2c3cnc(C(C)(C)O)cc3n(C(c3ccccc3)c3cscn3)c2c1 (stereo not drawn) [Compound 41, 2-{3-(3,5-Dimethylisoxazol-4-yl)-5-[phenyl(thiazol-4-yl)methyl]-5H-pyrrolo[3,2-b:4,5-c′]dipyridin-7-yl}propan-2-ol] | < 2 |  |
| Cc1noc(C)c1-c1cc(F)c2c3ncc(C(C)(C)O)cc3n(C(c3ccccc3)C3CCOCC3)c2c1 (stereo not drawn) [Compound 24, 2-{7-(3,5-dimethylisoxazol-4-yl)-9-fluoro-5-[phenyl(tetrahydro-2H-pyran-4-yl)methyl]-5H-pyridino[3,2-b]indol-3-yl}propan-2-ol] | < 2 | < 10 |
| Cc1noc(C)c1-c1cnc2c3ccc(C(C)O)nc3n(C(c3ccccc3)C3CCOCC3)c2c1 (stereo not drawn) [Compound 57, 1-{3-(3,5-Dimethylisoxazol-4-yl)-5-[phenyl(tetrahydro-2H-pyran-4-yl)methyl]-5H-pyrrolo[2,3-b:4,5-b′]dipyridin-7-yl}ethan-1-ol] | < 2 |  |
| Cc1noc(C)c1-c1cnc2c3ccc(C(C)(C)O)nc3n(C(c3ncccc3F)C3CCOCC3)c2c1 (stereo not drawn) [Compound 60] | < 2 |  |
